Here are results for three molecules from patent US9688760B2, “Anti-leukocyte adhesion for the mitigation of potential adverse events caused by CD3-specific binding domains” (AMGEN RESEARCH (MUNICH) GMBH, priority 2013, dated 2017).

Bounds are passed on as bounds.

In one data set the test system is HUVEC. The experiment in a line: In vitro flow chamber: T cell-rolling and adhesion on HUVEC, long-term conditions. In kind it is cell-based, human. As to conditions: non-stimulated HUVEC, 40 min. The protocol: (§1) Human brain microvascular endothelial cells (HBMEC) (#1000, Sciencell Research Laboratories) or human umbilical vein endothelial cells (HUVEC) (#C-12200, Promocell) were used as endothelial cell-model. Cryopreserved HBMEC at passage 1 (>5×10^5 cells/ml) were first cultivated in fibronectin-coated Nunclon-treated 75 cm^2 cell culture flasks (#156499, Nunc) at 37° C. and 5% CO2 in a Heraeus Cytoperm 2 (Thermo Scientific) according to the manufacturer's instructions. Sub-cultivation of HBMEC was done with the Detach Kit (#C-41200, Promocell) consisting of HEPES-buffered balanced salt solution (#C-40000, Promocell), trypsin-EDTA solution (0.04%/0.03%) (#C-41000, Promocell) and trypsin neutralization solution (TNS, #C-41100, Promocell). Briefly, the medium was aspirated from the HBMEC-layer and cells were washed with 2 ml of HEPES-buffered balanced salt solution. Addition of 2 ml of trypsin-EDTA solution for 1-5 min at room temperature led to detachment of HBMEC from the flask bottom. Inactivation of trypsin-EDTA solution was performed by addition of 2 ml of trypsin neutralization solution to the cell suspension. Cells were centrifuged at 300 g for 4 min in a Heraeus Megafuge 40 (Thermo Scientific) and seeded at a cell density of 5×10^5 cells per gelatin-coated 75 cm^2 cell culture flask (#L7230, Biochrom). HBMEC for rolling and adhesion experiments were cultivated in RPMI 1640 medium (#FG1215, Biochrom) supplemented with Nu-Serum IV (10%) (#355505, BD Biosciences), dialyzed FBS (10%) (#SZ0115, Biochrom), MEM-vitamins (1%) (#K0373, Biochrom), L-glutamine (1%) (#K0283, Biochrom), sodium-pyruvate (1%) (#L0473, Biochrom), heparin (10 U/ml) (#L6510, Biochrom), and […] cell growth factor ECGS (30 μg/ml) (#02-102, Millipore). Cultivation of HUVEC was done in endothelial cell growth medium (#C-22010, Promocell) supplemented with dialyzed FBS (10%) (#SZ0115, Biochrom) using gelatin-coated 75 cm^2 cell culture flasks. Sub-cultivation of HUVEC was performed with the Detach Kit ([…], Promocell) and cells were seeded at a cell density of 4.0-7.5×10^5 cells per 75 cm^2 cell culture flask.
Isolation of human PBMC from blood was performed by modified density gradient centrifugation as described elsewhere. Briefly, 15-20 ml of freshly drawn heparinized blood was transferred in Biocoll (#L6115, Biochrom)-containing Leukosep tubes (#227290, Greiner bio-one) and centrifuged in a Hettich Rotanta 460 RS Type 5606 (Hettich Laborapparate) at 1066 g for 15 min. After removal of the plasma fraction the PBMC containing phase was transferred in a new tube and washed twice with FACS-buffer (D-PBS #L1820, 5% FBS #SO115, Biochrom). Erythrocyte lysis was performed with lysis buffer (8.29 g/l NH4Cl, 1.00 g/l KHCO3, 0.037 g/l EDTA) for 5 min at room temperature. […]

For data set [1] the following is noted: cited from earlier work.
A further data set deals with stroke patients. As to conditions: iv, for several days; equivalent to 700 mg per os; cited from earlier work.
The test system of another data set is patients. The experiment in a line: Phase 1 clinical study: Blinatumomab with PPS co-medication. In kind it is in vivo, human. How it is done:
In a phase 1 clinical study three patients were treated with Blinatumomab at an initial dose of 5 μg/m^2/day for 1 week followed by a dose escalation to 60 μg/m^2/day for additional 3 to 7 weeks.

For the next data set, the system named is HBMEC. Kind of data set: In vitro flow chamber: T cell-rolling on HBMEC, long-term conditions. In kind it is cell-based, human. The protocol: as §1
Isolation of human PBMC from blood was performed by modified density gradient centrifugation as described elsewhere. Briefly, 15-20 ml of freshly drawn heparinized blood was transferred in Biocoll (#L6115, Biochrom)-containing Leukosep tubes (#227290, Greiner bio-one) and centrifuged in a Hettich Rotanta 460 RS Type 5606 (Hettich Laborapparate) at 1066 g for 15 min. After removal of the plasma fraction the PBMC containing phase was transferred in a new tube and washed twice with FACS-buffer (D-PBS #L1820, 5% FBS #SO115, Biochrom). Erythrocyte lysis was performed with lysis buffer (8.29 g/l NH4Cl, 1.00 g/l KHCO3, 0.037 g/l EDTA) for 5 min at room temperature. For subsequent purification of untouched T cells the human Pan T cell-isolation Kit II (#130-091-156, Miltenyi Biotec) was used according to the manufacturer's instructions.
The ibidi Pump System (#10902, ibidi) was used for cultivation of endothelial cells under flow conditions as well as for performing adhesion and rolling assays of human T cells on endothelial cells. The system consists of the ibidi Pump (#10905, ibidi) and the ibidi Fluidic Unit (#10903, ibidi) which work together to generate a unidirectional flow of medium in an attached slide with a defined channel height. The system is controlled by the ibidi Pump Control software (#10908, notebook+software, ibidi). For cultivation of HBMEC or HUVEC under flow conditions, HBMEC or HUVEC were seeded at a cell density of 2.5×10^6 cells/ml into μ-slide I^0.4 Luer Collagen IV (#80172, ibidi) or μ-slide I^0.4 Luer ibiTreat (#80176, ibidi), respectively according to the manufacturer's instructions and cultivated with a perfusion set “yellow/green” (#10964, ibidi) for 48 h under wall shear stress of 5 or 10 dyn/cm^2, respectively. […]

For data set [2] the following is noted: pH 6; cited from earlier work.

As for `CN(C)c1ccc(O)c2c1C[C@H]1C[C@H]3[C@H](N(C)C)C(O)=C(C(N)=O)C(=O)[C@@]3(O)C(O)=C1C2=O` [minocycline, Minocycline], the “mean T cell-rolling velocity±SD” value with HUVEC (+AMG 103 10 ng/ml, T cells pre-incubated with 50 μg/ml minocycline) was found to be 217±92 μm/sec; with HUVEC (−AMG 103, +minocycline 50 μg/ml) it was 233±29 μm/sec. Further, the bioavailability in data set [1] (after oral administration) is reported as ~100%. The in vivo half-life entry in data set [1] (in vivo) is “approximately 24 hours”. The “daily doses found to be safe and well-tolerated” value in the data set with stroke patients is recorded as “up to 10 mg/kg”.
Take “β1→4-D-Xylan-2,3-bis(hydrogen sulfate) [PPS, reference compound]”: in the data set on patients (all three patients with PPS co-medication), the “T cell-counts in peripheral blood vs baseline, 45 minutes after start of infusion or stepwise dose increase” value is on record as “no decline of T cell-counts”. Besides, in the data set on patients (all three patients with intravenous PPS, absence of CD19-positive target cells), the T cell-redistribution kinetics entry is “delayed T cell-redistribution kinetics”. In the data set with patients (intervention with intravenous PPS), the “earliest detection of decreased T cell-counts in peripheral blood after start of infusion or stepwise dose increase of Blinatumomab” value is ≥ 2 h. Besides, the “discontinuation of Blinatumomab treatment due to neurological adverse effects” value in the data set on patients (three patients with intravenous PPS at start of infusion and dose step, high risk (low B:T cell-ratios)) is listed as “none of these three patients had to discontinue treatment”. For the same molecule, the “mean T cell-rolling velocity±SD” value is recorded as 483±157 μm/sec with HBMEC (histamine-stimulated HBMEC, +AMG 103 10 ng/ml, +PPS 200 μg/ml, 45 min); 442±156 μm/sec in the data set on HBMEC (histamine-stimulated HBMEC, −AMG 103, +PPS 200 μg/ml, 45 min); 465±116 μm/sec in the data set on HBMEC (non-stimulated HBMEC, +AMG 103 10 ng/ml, +PPS 200 μg/ml, 40 min); 514±159 μm/sec in the data set on HBMEC (non-stimulated HBMEC, −AMG 103, +PPS 200 μg/ml, 40 min). Further, the solubility in water in data set [2] is 50%.
With “natalizumab: antibody approved for the treatment of multiple sclerosis; binds to VLA-4 on T cells [reference compound]”, the “mean T cell-rolling velocity±SD” value worked out at 444±110 μm/sec in the data set with HBMEC (non-stimulated HBMEC, +AMG 103 10 ng/ml, T cells pre-incubated with 1 μg/ml natalizumab, 40 min) and 445±81 μm/sec in the data set on HBMEC (non-stimulated HBMEC, −AMG 103, +natalizumab 1 μg/ml, 40 min).

By bioavailability is commonly meant dose-corrected exposure relative to a reference, in per cent.
